# In patent US4228176A, “Thromboxane inhibition with burimamide” (Nelson Research & Development Company, priority 1979, dated 1980):
# Like-named read-outs stand apart in the source and are kept apart here.
# Tests used:
# Thromboxane Biosynthesis = assay: Inhibition of thromboxane biosynthesis; type: biochemical; parameters: % Inhibition of Thromboxane Biosynthesis: unit of the concentration uncertain; conditions: for % INHIBITION (Inhibition of Thromboxane Biosynthesis): concentration of 100 mg/ml (Table 2)
# Text: A comparison of the inhibition of thromboxane biosynthesis between imidazole and Burimamide was made.
# A number of structurally related compounds including other H2 blockers were compared for inhibition of thromboxane activity.
# Thromboxane Synthetase [1] = conditions: human platelets; cited from earlier work
# Thromboxane Synthetase [2] = conditions: cited from earlier work
# H2-receptor = conditions: cited from earlier work
# [3] = tested on: histamineinduced gastric acid secretion; conditions: cited from earlier work
# [4] = concentration 0.5 (unit uncertain)
# [5] = concentration 1 (unit uncertain)
# [6] = concentration 2 (unit uncertain)
# [7] = concentration 5 (unit uncertain)
# [8] = concentration 10 (unit uncertain)
# [9] = concentration 20 (unit uncertain)
# [10] = concentration 50 (unit uncertain)
structure (smiles),measurement,setting,value
Cc1[nH]cnc1CCN [4-Methylhistamine],% INHIBITION (Inhibition of Thromboxane Biosynthesis),Thromboxane Biosynthesis,0%
NCCc1nccs1 [2-(2-thiazolyl) Ethylamine],% INHIBITION (Inhibition of Thromboxane Biosynthesis),Thromboxane Biosynthesis,19%
CNC(=NC#N)NCCSCc1[nH]cnc1C [Cimetidine],"thromboxane biosynthesis inhibition, in words",Thromboxane Biosynthesis,only minor thromboxane inhibitory activity
same,% INHIBITION (Inhibition of Thromboxane Biosynthesis),Thromboxane Biosynthesis,19%
CC(=O)NCCc1c[nH]cn1 [N-acetyl Histamine],% INHIBITION (Inhibition of Thromboxane Biosynthesis),Thromboxane Biosynthesis,26%
N[C@@H](Cc1c[nH]cn1)C(=O)O [L-Histidine],% INHIBITION (Inhibition of Thromboxane Biosynthesis),Thromboxane Biosynthesis,17%
CN(C)CCCSC(=N)N [Dimaprit],% INHIBITION (Inhibition of Thromboxane Biosynthesis),Thromboxane Biosynthesis,35%
CNC(=S)NCCSCc1[nH]cnc1C [Metiamide],"thromboxane biosynthesis inhibition, in words",Thromboxane Biosynthesis,only minor thromboxane inhibitory activity
same,% INHIBITION (Inhibition of Thromboxane Biosynthesis),Thromboxane Biosynthesis,33%
CC(=O)N[C@@H](Cc1c[nH]cn1)C(=O)O [N-acetyl Histidine],% INHIBITION (Inhibition of Thromboxane Biosynthesis),Thromboxane Biosynthesis,0%
c1c[nH]cn1 [Imidazole],"inhibition of thromboxane biosynthesis, in words",Thromboxane Synthetase [1],selective inhibitor of thromboxane biosynthesis
same,"thromboxane biosynthesis inhibition, in words",Thromboxane Biosynthesis,only compound comparable in inhibition of thromboxane biosynthesis
same,% Inhibition of Thromboxane Biosynthesis,Thromboxane Biosynthesis; [4],0%
same,% Inhibition of Thromboxane Biosynthesis,Thromboxane Biosynthesis; [5],25%
same,% Inhibition of Thromboxane Biosynthesis,Thromboxane Biosynthesis; [6],53%
same,% Inhibition of Thromboxane Biosynthesis,Thromboxane Biosynthesis; [7],68%
same,% Inhibition of Thromboxane Biosynthesis,Thromboxane Biosynthesis; [8],81%
same,% Inhibition of Thromboxane Biosynthesis,Thromboxane Biosynthesis; [9],89%
same,% Inhibition of Thromboxane Biosynthesis,Thromboxane Biosynthesis; [10],88%
Cn1ccnc1 [1-methyl imidazole],"inhibition of thromboxane biosynthesis, in words",Thromboxane Synthetase [2],potent inhibitor of thromboxane biosynthesis
"CNC(=S)NCCCCc1c[nH]cn1 [Burimamide, N-methyl-N'-[4-(imidazole-4-yl)butyl] thiourea]","pharmacologic activity at H2-receptor, in words",H2-receptor,H2 -receptor blocker
same,"thromboxane biosynthesis inhibition, in words",Thromboxane Biosynthesis,"potent, selective blocker of thromboxane biosynthesis"
same,% Inhibition of Thromboxane Biosynthesis,Thromboxane Biosynthesis; concentration 100 mg/ml (Table 1),98%
same,% Inhibition of Thromboxane Biosynthesis,Thromboxane Biosynthesis; [4],15%
same,% Inhibition of Thromboxane Biosynthesis,Thromboxane Biosynthesis; [5],21%
same,% Inhibition of Thromboxane Biosynthesis,Thromboxane Biosynthesis; [6],36%
same,% Inhibition of Thromboxane Biosynthesis,Thromboxane Biosynthesis; [7],47%
same,% Inhibition of Thromboxane Biosynthesis,Thromboxane Biosynthesis; [8],58%
same,% Inhibition of Thromboxane Biosynthesis,Thromboxane Biosynthesis; [9],73%
same,% Inhibition of Thromboxane Biosynthesis,Thromboxane Biosynthesis; [10],86%
same,% INHIBITION (Inhibition of Thromboxane Biosynthesis),Thromboxane Biosynthesis,100%
same,"histamine-induced gastric acid secretion, in words",[3],inhibit histamineinduced gastric acid secretion
NCCc1c[nH]cn1 [Histamine],% INHIBITION (Inhibition of Thromboxane Biosynthesis),Thromboxane Biosynthesis,17%
Clc1cccc(Cl)c1NC1=NCCN1 [Clonidine],% INHIBITION (Inhibition of Thromboxane Biosynthesis),Thromboxane Biosynthesis,0%
NCCc1ccccn1 [2-(2-pyridyl) Ethylamine],% INHIBITION (Inhibition of Thromboxane Biosynthesis),Thromboxane Biosynthesis,20%
c1ccc([C@H]2CN3CCSC3=N2)cc1 [Levamisole],% INHIBITION (Inhibition of Thromboxane Biosynthesis),Thromboxane Biosynthesis,6%
